Laboratory results reported in ChEMBL document CHEMBL3351415, “Synthesis, antimicrobial and anti-biofilm activities of novel Schiff base analogues derived from methyl-12-aminooctadec-9-enoate” (Bioorg Med Chem Lett, 2014).
In brackets after ≈: the same amount, converted by molar mass.

Key:
[1] = test system: Staphylococcus aureus; test: Bactericidal activity against Staphylococcus aureus MTCC 96 incubated for 24 hrs; type: functional; conditions: MTCC 96, 24 h
[2] = test system: Bacillus subtilis; test: Anti-biofilm activity against Bacillus subtilis MTCC 121 assessed as inhibition of biofilm formation incubated for 24 hrs by crystal violet staining based modified biofilm inhibition assay; type: functional, organism-based; conditions: MTCC 121, 24 h
[3] = test system: Bacillus subtilis; test: Antimicrobial activity against Bacillus subtilis MTCC 121 incubated for 24 hrs by well diffusion method; type: functional; conditions: MTCC 121, 24 h
[4] = test system: Escherichia coli; test: Antimicrobial activity against Escherichia coli MTCC 739 incubated for 24 hrs by well diffusion method; type: functional; conditions: MTCC 739, 24 h
[5] = test system: Micrococcus luteus; test: Antimicrobial activity against Micrococcus luteus MTCC 2470 incubated for 24 hrs by well diffusion method; type: functional; conditions: MTCC 2470, 24 h
[6] = test system: Staphylococcus aureus; test: Anti-biofilm activity against Staphylococcus aureus MTCC 96 assessed as inhibition of biofilm formation incubated for 24 hrs by crystal violet staining based modified biofilm inhibition assay; type: functional, organism-based; conditions: MTCC 96, 24 h
[7] = test system: Pseudomonas aeruginosa; test: Antimicrobial activity against Pseudomonas aeruginosa MTCC 2453 incubated for 24 hrs by well diffusion method; type: functional; conditions: MTCC 2453, 24 h
[8] = test system: Staphylococcus aureus; test: Antimicrobial activity against Staphylococcus aureus MTCC 96 incubated for 24 hrs by well diffusion method; type: functional; conditions: MTCC 96, 24 h
[9] = test system: Bacillus subtilis; test: Bactericidal activity against Bacillus subtilis MTCC 121 incubated for 24 hrs; type: functional; conditions: MTCC 121, 24 h
[10] = Antimicrobial activity against Klebsiella […] incubated for 24 hrs by well diffusion method; type: functional, Raoultella planticola
[11] = test system: Staphylococcus aureus; test: Anti-biofilm activity against Staphylococcus aureus MLS-16 MTCC 2940 assessed as inhibition of biofilm formation incubated for 24 hrs by crystal violet staining based modified biofilm inhibition assay; type: functional, organism-based; conditions: MLS-16 MTCC 2940, 24 h
[12] = test system: Staphylococcus aureus; test: Antimicrobial activity against Staphylococcus aureus MLS-16 MTCC 2940 incubated for 24 hrs by well diffusion method; type: functional; conditions: MLS-16 MTCC 2940, 24 h
[13] = test system: Staphylococcus aureus; test: Bactericidal activity against Staphylococcus aureus MLS-16 MTCC 2940 incubated for 24 hrs; type: functional; conditions: MLS-16 MTCC 2940, 24 h

Row | SMILES | MBC [1] [µM] | IC50 [2] [µM] | MIC [3] [µM] | MIC [4] [µM] | MIC [5] [µM] | IC50 [6] [µM] | MIC [7] [µM] | MIC [8] [µM] | MBC [9] [µM] | MIC [10] [µM] | IC50 [11] [µM] | MIC [12] [µM] | MBC [13] [µM]
1 | CCCCCCC(C/C=C\CCCCCCCC(=O)OC)/N=C\c1ccc(O)cc1 (stereo not given) | 37.5 (≈ 15.6 µg/mL) | 19.5 | 37.5 (≈ 15.6 µg/mL) | > 300 | > 300 | 10.1 | > 300 | 18.7 (≈ 7.77 µg/mL) | 75.1 (≈ 31.2 µg/mL) | > 300 | 9.1 | 18.7 (≈ 7.77 µg/mL) | 37.5 (≈ 15.6 µg/mL)
2 | CCCCCCC(C/C=C\CCCCCCCC(=O)OC)/N=C\c1ccc(OC)cc1 (stereo not given) | 36.3 (≈ 15.6 µg/mL) | 7.9 | 18.1 (≈ 7.78 µg/mL) | > 300 | > 300 | 12.1 | > 300 | 18.1 (≈ 7.78 µg/mL) | 36.3 (≈ 15.6 µg/mL) | > 300 | 23.7 | 36.3 (≈ 15.6 µg/mL) | 36.3 (≈ 15.6 µg/mL)
3 | CCCCCCC(C/C=C\CCCCCCCC(=O)OC)/N=C\c1cccc(C)c1 (stereo not given) | – | – | 75.5 (≈ 31.2 µg/mL) | > 300 | > 300 | – | > 300 | 151 (≈ 62.6 µg/mL) | – | > 300 | – | 75.5 (≈ 31.2 µg/mL) | –
4 | CCCCCCC(C/C=C\CCCCCCCC(=O)OC)/N=C\c1ccc(C)cc1 (stereo not given) | – | – | > 300 | > 300 | > 300 | – | > 300 | > 300 | – | > 300 | – | > 300 | –
5 | CCCCCCC(C/C=C\CCCCCCCC(=O)OC)/N=C\c1c[nH]c2ccccc12 (stereo not given) | 35.6 (≈ 15.6 µg/mL) | 21.9 | 35.6 (≈ 15.6 µg/mL) | > 300 | > 300 | 7.3 | > 300 | 17.8 (≈ 7.81 µg/mL) | 71.2 (≈ 31.2 µg/mL) | > 300 | 9.5 | 17.8 (≈ 7.81 µg/mL) | 35.6 (≈ 15.6 µg/mL)
6 | CCCCCCC(C/C=C\CCCCCCCC(=O)OC)/N=C\c1ccccc1O (stereo not given) | – | – | > 300 | > 300 | > 300 | – | > 300 | > 300 | – | > 300 | – | > 300 | –
7 | CCCCCCC(C/C=C\CCCCCCCC(=O)OC)/N=C\c1ccc(C#N)cc1 (stereo not given) | – | – | > 300 | > 300 | > 300 | – | > 300 | > 300 | – | > 300 | – | > 300 | –
8 | O=C(O)c1cn(C2CC2)c2cc(N3CCNCC3)c(F)cc2c1=O [CIPROFLOXACIN] | 2.7 (≈ 0.895 µg/mL) | 1.53 | 2.7 (≈ 0.895 µg/mL) | 2.7 (≈ 0.895 µg/mL) | 2.7 (≈ 0.895 µg/mL) | 0.99 | 2.7 (≈ 0.895 µg/mL) | 2.7 (≈ 0.895 µg/mL) | 5.7 (≈ 1.89 µg/mL) | 2.7 (≈ 0.895 µg/mL) | – | 2.7 (≈ 0.895 µg/mL) | 5.7 (≈ 1.89 µg/mL)
9 | CCCCCCC(C/C=C\CCCCCCCC(=O)OC)/N=C\c1ccc(OC)c(OC)c1 (stereo not given) | 136 (≈ 62.5 µg/mL) | 21.3 | 33.9 (≈ 15.6 µg/mL) | > 300 | > 300 | 41.8 | > 300 | 67.9 (≈ 31.2 µg/mL) | 33.9 (≈ 15.6 µg/mL) | > 300 | 24.4 | 33.9 (≈ 15.6 µg/mL) | 67.9 (≈ 31.2 µg/mL)
10 | CCCCCCC(C/C=C\CCCCCCCC(=O)OC)/N=C\c1ccc(O)c(OC)c1 (stereo not given) | 35 (≈ 15.6 µg/mL) | 10.3 | 17.5 (≈ 7.8 µg/mL) | > 300 | > 300 | 9.4 | > 300 | 17.5 (≈ 7.8 µg/mL) | 35 (≈ 15.6 µg/mL) | > 300 | 8 | 17.5 (≈ 7.8 µg/mL) | 35 (≈ 15.6 µg/mL)
11 | CCCCCCC(C/C=C\CCCCCCCC(=O)OC)/N=C\C=C\c1ccc(N(C)C)cc1 (stereo not given) | 16.6 (≈ 7.78 µg/mL) | 21.7 | 33.3 (≈ 15.6 µg/mL) | > 300 | > 300 | 10.2 | > 300 | 16.6 (≈ 7.78 µg/mL) | 66.6 (≈ 31.2 µg/mL) | > 300 | 8.1 | 16.6 (≈ 7.78 µg/mL) | 33.3 (≈ 15.6 µg/mL)
12 | CCCCCCC(C/C=C\CCCCCCCC(=O)OC)/N=C\c1ccc(N(C)C)cc1 (stereo not given) | 17.6 (≈ 7.79 µg/mL) | 27.8 | 35.2 (≈ 15.6 µg/mL) | > 300 | > 300 | 9.5 | > 300 | 17.6 (≈ 7.79 µg/mL) | 70.5 (≈ 31.2 µg/mL) | > 300 | 11.5 | 17.6 (≈ 7.79 µg/mL) | 35.2 (≈ 15.6 µg/mL)
13 | CCCCCCC(C/C=C\CCCCCCCC(=O)OC)/N=C\c1cc(OC)c(O)c(OC)c1 (stereo not given) | 16.4 (≈ 7.8 µg/mL) | 8.6 | 16.4 (≈ 7.8 µg/mL) | > 300 | > 300 | 7.3 | > 300 | 16.4 (≈ 7.8 µg/mL) | 16.4 (≈ 7.8 µg/mL) | > 300 | 6.5 | 16.4 (≈ 7.8 µg/mL) | 32.8 (≈ 15.6 µg/mL)
14 | CCCCCCC(C/C=C\CCCCCCCC(=O)OC)/N=C\c1ccc(OC)cc1OC (stereo not given) | – | – | 33.9 (≈ 15.6 µg/mL) | > 300 | > 300 | – | > 300 | 67.9 (≈ 31.2 µg/mL) | – | > 300 | – | 33.9 (≈ 15.6 µg/mL) | –
15 | CCCCCCC(C/C=C\CCCCCCCC(=O)OC)/N=C\c1ccc(Cl)cc1Cl (stereo not given) | – | – | > 300 | > 300 | > 300 | – | > 300 | > 300 | – | > 300 | – | > 300 | –
16 | CCCCCCC(C/C=C\CCCCCCCC(=O)OC)/N=C\c1ccc(F)cc1 (stereo not given) | – | – | 150 (≈ 62.6 µg/mL) | > 300 | > 300 | – | > 300 | 150 (≈ 62.6 µg/mL) | – | > 300 | – | 150 (≈ 62.6 µg/mL) | –
17 | CCCCCCC(C/C=C\CCCCCCCC(=O)OC)/N=C\c1cccc([N+](=O)[O-])c1 (stereo not given) | – | – | > 300 | > 300 | > 300 | – | > 300 | > 300 | – | > 300 | – | > 300 | –
18 | CCCCCCC(C/C=C\CCCCCCCC(=O)OC)/N=C\c1ccc(Cl)cc1 (stereo not given) | 18 (≈ 7.81 µg/mL) | 6 | 9 (≈ 3.91 µg/mL) | > 300 | > 300 | 4.8 | > 300 | 9 (≈ 3.91 µg/mL) | 9 (≈ 3.91 µg/mL) | > 300 | 4.3 | 9 (≈ 3.91 µg/mL) | 18 (≈ 7.81 µg/mL)
